A word on the IC50: it is the midpoint of a concentration-inhibition curve.

Read-outs that look alike come from different tables or passages of the source. Square brackets hold non-standard residues; d marks the D form. Ends that are not written are not given here. Peptide text beside a SMILES is read from it. * marks the point of attachment. Dolaproine = CO[C@@H]([C@@H]1CCCN1)[C@@H](C)C(=O)O; Dil = CC[C@H](C)[C@H](NC)[C@@H](CC(=O)O)OC; X1 = C[C@@H](N*)[C@@H](O)c1ccccc1; NMeV = CN[C@H](C(=O)O)C(C)C

Data on 3 molecules can be found in article PMC6353898, “A Rational Approach for Creating Peptides Mimicking Antibody Binding” (Scientific Reports, 2019).

For assay [1], the system named is A431 cells. As to the kind of experiment: In vitro cytotoxicity (SRB), A431. It counts as cell-based. The method, then: (§1) Cells were cultured to 80% confluency in T75 culture flasks using DMEM as growth medium, respectively. The cells were seeded onto 96 well plates and grown for 24 h to reach 50% confluency.
(§2) At the end of the incubation period, the cells were fixed using 10% trichloroacetic acid, followed by washing with distilled water and drying. The cellular proteins were stained using 50 μL of 0.4% Sulforhodamine B (SRB) in 1% acetic acid. Unbound SRB was washed with 1% acetic acid and the plates were dried overnight. The cell bound SRB was then solubilized using 200 μL of 10 mM unbuffered tris base solution. SRB absorbance was measured at 560 nm wavelength using a plate reader. The percent viabilities of cells were plotted as a function of log concentration and data was analyzed in GraphPad Prism Version 5.0 software (GraphPad Software Inc, CA, USA) using nonlinear-regression curve fit (variable slope four parameter equation).

The test system of assay [2] is MDA MB 468 cells. Description: In vitro cytotoxicity (SRB), MDA MB 468. It counts as cell-based, human. The method, then:
as §1, §2

The subject of assay [3] is HEK 293 cells. Description: In vitro cytotoxicity (SRB), HEK 293. The assay is classed as cell-based, human. The method, then:
as §1, §2

Assay [4] has as its target bovine serum albumin (BSA) (Bos taurus, UniProt P02769). The settings on record: pH 7.4.
Description: Surface plasmon resonance (SPR) studies were conducted using the Dual Channel SPR Spectrometer SPR7000DC (Reichert Technologies, New York, USA) to determine the binding affinity of peptides to EGFR protein. All experiments were carried out at 25 °C. Phosphate buffer saline (PBS) with 0.01% Tween 20 (pH7.4) was filtered and thoroughly degassed before use. EGFR (20 µg/mL) recombinant human protein and bovine serum albumin (BSA 20 µg/mL) were covalently attached to the left channel of 500,000 Da carboxymethylated dextran sensor chips using 1-ethyl-3-(3-dimethylaminopropyl)-carbodiimide (EDC) and N-hydroxysuccinimide (NHS) chemistry. The chips were then blocked by passing ethanolamine for 8 minutes at a rate of 10 µL/min.
All peptides were injected as soluble analytes in PBS with 0.01% Tween 20 at different concentrations with an injection speed at 15 µL/min. […] The bound surface was regenerated by sequential injections of 10 mM glycine in PBS (pH 2.5).
The sensorgrams from SPR were globally treated using Scrubber 2 software (BioLogic Software Pty Ltd, Australia), and kinetic constants kon and koff were determined by global fitting analyses of the titration curves using the 1:1 Lagmurian interaction model considering the mass transport. The equilibrium dissociation constant (KD) was calculated from the koff/kon ratio.
In assay [5] the target is EGFR recombinant human protein (Homo sapiens, UniProt P00533). Description: Surface plasmon resonance, EGFR as immobilized surface. It counts as binding. Particulars: SPR, 25 °C, PBS with 0.01% Tween 20 pH 7.4. The method, then:
All experiments were carried out at 25 °C.
(In SPR one partner is held on a chip, and binding of the other changes the refractive index at the surface.)

Sequence of EGFR recombinant human protein (P00533 25-645 limits assumed): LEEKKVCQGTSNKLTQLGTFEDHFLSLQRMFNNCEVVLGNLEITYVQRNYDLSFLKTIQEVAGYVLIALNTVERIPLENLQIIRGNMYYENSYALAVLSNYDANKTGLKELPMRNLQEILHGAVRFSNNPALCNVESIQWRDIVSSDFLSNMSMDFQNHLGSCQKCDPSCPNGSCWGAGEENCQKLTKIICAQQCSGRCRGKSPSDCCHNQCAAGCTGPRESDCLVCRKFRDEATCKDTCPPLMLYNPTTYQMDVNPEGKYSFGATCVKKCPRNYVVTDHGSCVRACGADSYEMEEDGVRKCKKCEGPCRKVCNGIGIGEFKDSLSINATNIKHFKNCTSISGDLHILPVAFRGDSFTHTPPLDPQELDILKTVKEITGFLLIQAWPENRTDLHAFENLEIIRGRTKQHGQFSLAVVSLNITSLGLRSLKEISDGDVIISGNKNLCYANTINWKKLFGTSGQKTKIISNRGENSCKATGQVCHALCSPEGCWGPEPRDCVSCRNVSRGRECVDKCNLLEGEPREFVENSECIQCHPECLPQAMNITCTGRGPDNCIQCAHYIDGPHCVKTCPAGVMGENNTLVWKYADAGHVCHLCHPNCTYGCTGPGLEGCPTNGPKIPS
Sequence of bovine serum albumin (BSA) (P02769 25-607): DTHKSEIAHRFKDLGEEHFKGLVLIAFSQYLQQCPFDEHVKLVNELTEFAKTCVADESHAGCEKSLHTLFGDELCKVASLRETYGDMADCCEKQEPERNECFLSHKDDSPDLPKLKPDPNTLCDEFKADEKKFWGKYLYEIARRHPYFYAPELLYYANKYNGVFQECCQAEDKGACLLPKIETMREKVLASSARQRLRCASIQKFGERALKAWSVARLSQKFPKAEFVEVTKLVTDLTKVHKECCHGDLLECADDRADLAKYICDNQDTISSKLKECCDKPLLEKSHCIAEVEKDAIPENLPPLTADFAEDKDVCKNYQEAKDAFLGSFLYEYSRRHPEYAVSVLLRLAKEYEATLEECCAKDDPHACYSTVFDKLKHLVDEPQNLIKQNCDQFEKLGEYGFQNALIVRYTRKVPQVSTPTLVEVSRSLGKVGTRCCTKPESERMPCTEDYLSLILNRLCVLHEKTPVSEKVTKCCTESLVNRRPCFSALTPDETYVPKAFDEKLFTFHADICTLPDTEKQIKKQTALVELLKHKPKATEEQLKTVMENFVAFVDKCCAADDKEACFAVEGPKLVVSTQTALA

On to WSGENGPGFYDYEA [Pep11], for which the IC50 came to 388 nM in assay [1] (72 h), 420 nM in assay [2] (72 h) and 1040 nM in assay [3] (72 h). Besides, the “KD BSA / binding to BSA, no value” in assay [4] was “did not show binding”.
On to SGEWAYDGYEPNFG [Pep25], for which the “KD EGFR / binding to EGFR, no value” in assay [5] is on record as “did not bind”.
For `CC[C@H](C)[C@@H]([C@@H](CC(=O)N1CCC[C@H]1[C@H](OC)[C@@H](C)C(=O)N[C@H](C)[C@@H](O)c1ccccc1)OC)N(C)C(=O)[C@@H](NC(=O)[C@@H](NC)C(C)C)C(C)C` [MMAE, Monomethyl Auristatin E, reference compound] (H-[NMeV]V[Dil][Dolaproine]-X1), the IC50 amounted to 0.0246 nM in assay [1] (SRB, 72 hours at 37 °C, 0.00001 to 10000 nM, read-out: IC50 (A431)); 0.0117 nM in assay [2] (SRB, 72 hours at 37 °C, 0.00001 to 10000 nM, read-out: IC50 (MDA MB 468)); 0.0626 nM in assay [3] (SRB, 72 hours at 37 °C, 0.00001 to 10000 nM, read-out: IC50 (HEK 293)).
